Measurements taken from US20160045498A1, “METHODS OF TREATING DISEASES CHARACTERIZED BY EXCESSIVE WNT SIGNALLING” (THE WALTER AND ELIZA HALL INSTITUTE OF MEDICAL RESEARCH, priority 2013, published 2016).

Columns and labels:
TYK2 = TYK2 (Homo sapiens, UniProt P29597); conditions: WO2012062704; cited from earlier work
intestinal tumours = experiment: Intestinal tumour burden after tamoxifen-induced conditional Apc deletion in Lgr5CreERT2;Apcfl/fl mice; type: in vivo; conditions: Lgr5CreERT2;Apcfl/fl mice, CYT387 30 mg/kg oral gavage
Experimental: e Quantification of intestinal tumour burden of mice using the Metamorph analysis tool (Barker et al., 2009) after tamoxifen-induced conditional Apc deletion in adult Lgr5^CreERT2;Apc^fl/fl mice that also received daily administration of AZD1480 (30 mg/kg) or vehicle during this time. (*p≦0.04; n=3 mice).
d Intestinal tumour burden 5 weeks after tamoxifen-induced conditional Apc deletion in adult Lgr5^CreERT2;Apc^fl/fl mice that also received daily administration of AZD1480 (Jak2i; 30 mg/kg) or vehicle during this time. Higher magnifications of the boxed areas are provided and arrows point to tubular adenomas whilst arrowheads point to micro-adenomas. Scale bars=1 mm.
10 week old Lgr5CreERT2;Apcfl/fl mice received four i.p injections with tamoxifen (10 mg/ml; 300 ul, 200 ul, 200 ul, 200 ul) over four consecutive days. Three days after the last injection, mice received daily oral gavages with either vehicle (tap water, pH 2.0) or CYT387 (30 mg/kg) for four weeks. Regime was 5 days treatment followed by 2 days off treatment.
Hematoxilin and Eosin-stained sections were scanned using an Aperio ScanScope XT (Aperio, USA) pathology slide scanner with a 20x PlanApo NA0.6 objective and areas of interest were extracted using Aperio ImageScope software v11.1.2.760. The area of individual tumors was outlined using MetaMorph v7.7.7 and standardized against the entire length of the colon section as described (Barker et al., 2009).

SW480 cells [1] = experiment: Soft agar colony growth assay, SW480; type: cell-based, human; conditions: SW480, 10 days; AZD1480 1 μM, S3I-201 50 μM, IL11 10 ng/ml
Experimental: (§1) e Photograph of SW480 and SW480^APC CRC cells grown for 10 days under colony forming conditions in soft agar in the presence of vehicle or 1 μM of Jak2 inhibitor AZD1480 (Jak2i) (Scale bar=200 μm)
(§2) f Colony forming capacity of an isogenic pair of SW480 cells scored 10 days after the indicated treatment. (*p≦0.04; triplicate cultures and repeated).
(§3) SW480 and SW480^APC cells (Faux et al., 2004) were seeded in 2 ml of RPMI media supplemented with 10% FBS and 1% penicillin/streptomycin in 35 mm culture dishes at a density of 2×10^5 cells per dish. Three days later cultures were exposed to AZD1480 (1 μM) for 15 min. Co-immunofluorescence was then performed with antibodies to rabbit phospho-Stat3 (Tyr705, Santa Cruz #9134s, 1:200 dilution) and mouse β-catenin (Transduction Laboratories, 1:400). Colony formation assays of SW480 cells in soft agar were performed as described (Faux et al., 2004) in the presence of either AZD1480, (1 μM), the Stat3 inhibitor S3I-201 (Biovision, 50 μM) or recombinant human IL11 (Genetics Institute, 10 ng/ml). All experiments were performed in triplicates and repeated at least once. Vehicle was methylcellulose.

intestinal organoids = experiment: Organoid culture, crypt formation; type: cell-based, mice; conditions: S3I-201 7.5 μM from day 3 after seeding
Experimental: […] Arrows point to budding crypt-like structures. Scale bar=50 μm.
d Enumeration of crypts on individual organoids from experiment illustrated in FIG. 1c. (*p≦0.018; Two-sided t-test on triplicate cultures and repeated).
Crypts from small intestines were harvested, washed and were resuspended at 2000 crypts/ml of matrigel (BD Biosciences) and 50 μL was dispensed in each well of a 24-well plate. Once the matrigel had set, medium was added and the organoids cultured for seven days as described (Sato et al., 2009). Experiments were performed in triplicates and repeated.
Organoid cultures were imaged on a Nikon Ti-E microscope using DIC contrast with a 10x PlanApo NA0.3 objective. A focal stack of images was collected (10 μm apart) and processed through the Best Focus function of MetaMorph v7.7.7 (Molecular Devices, USA) to generate the final image of individual Organoids.

SW480^APC cells [2] = experiment: Soft agar colony growth assay, SW480APC; type: cell-based, human; conditions: 10 days, AZD1480 1 μM, S3I-201 50 μM, IL11 10 ng/ml
Experimental: as §1, §2, §3

IECs = experiment: RT-qPCR of IECs after i.p. injection of recombinant IL-11; type: in vivo; conditions: gp130^F/F mice, 30 minutes after i.p. 5 μg recombinant IL-11
Experimental: a RT-qPCR expression analysis for Socs3 and Bmi1 in IECs isolated from gp130^F/F mice 30 minutes after an i.p. injection of 5 μg of recombinant IL-11 (p=0.04; n=3 mice).
(§4) Gene expression analysis by RT-qPCR was performed using the SybrGreen method (ABI) as described previously (Phesse et al., 2008). Fold change was calculated using the 2^−ΔΔCT method (Livak et al., 2001). Protein expression was analysed by Western blot by transferring SDS-PAGE separated protein lysates to nitrocellulose membrane and blocked either in 5% non-fat milk powder and probed with antibodies detecting p16 (Santa Cruz; #sc-467), Bmi1 (Millipore #[…]), Actin (Sigma; #A2066) or Gapdh (Santa Cruz; #sc-69778). All antibodies were diluted 1:1000 in BSA or non-fat milk powder and incubations were performed overnight.

SW480 cells [3] = experiment: p-STAT3 / β-CATENIN immunofluorescence and SOCS3 RT-qPCR in SW480 cells; type: cell-based, human; conditions: SW480, RT-qPCR; AZD1480 1 μM, IL11 10 ng/ml
Experimental: (§5) d Immunofluorescence staining for β-CATENIN or tyrosine-705 phosphorylated STAT3 in an isogenic pair of SW480 cells grown in the presence of 1 μM AZD1480 (Jak2i) or vehicle. SW480 cells are APC mutant and lack expression of functional APC protein, while SW480^APC cells have been reconstituted to express wild-type APC. Scale bar=20 μm.
(§6) g RT-qPCR expression analysis for the STAT3 target gene SOCS3 in SW480 and SW480^APC CRC cells grown for 10 days under colony forming conditions in soft agar in the presence of the indicated treatment. Expression in the vehicle-treated cultures was arbitrarily set as 1. (*p≦0.04; triplicate cultures in each of two repeats).
as §3, §4

SW480^APC cells [4] = experiment: p-STAT3 immunofluorescence and SOCS3 RT-qPCR in SW480APC cells; type: cell-based, human; conditions: RT-qPCR, AZD1480 1 μM, IL11 10 ng/ml
Experimental: as §5, §6, §3, §4

Sequence of TYK2 (P29597 whole entry, species assumed): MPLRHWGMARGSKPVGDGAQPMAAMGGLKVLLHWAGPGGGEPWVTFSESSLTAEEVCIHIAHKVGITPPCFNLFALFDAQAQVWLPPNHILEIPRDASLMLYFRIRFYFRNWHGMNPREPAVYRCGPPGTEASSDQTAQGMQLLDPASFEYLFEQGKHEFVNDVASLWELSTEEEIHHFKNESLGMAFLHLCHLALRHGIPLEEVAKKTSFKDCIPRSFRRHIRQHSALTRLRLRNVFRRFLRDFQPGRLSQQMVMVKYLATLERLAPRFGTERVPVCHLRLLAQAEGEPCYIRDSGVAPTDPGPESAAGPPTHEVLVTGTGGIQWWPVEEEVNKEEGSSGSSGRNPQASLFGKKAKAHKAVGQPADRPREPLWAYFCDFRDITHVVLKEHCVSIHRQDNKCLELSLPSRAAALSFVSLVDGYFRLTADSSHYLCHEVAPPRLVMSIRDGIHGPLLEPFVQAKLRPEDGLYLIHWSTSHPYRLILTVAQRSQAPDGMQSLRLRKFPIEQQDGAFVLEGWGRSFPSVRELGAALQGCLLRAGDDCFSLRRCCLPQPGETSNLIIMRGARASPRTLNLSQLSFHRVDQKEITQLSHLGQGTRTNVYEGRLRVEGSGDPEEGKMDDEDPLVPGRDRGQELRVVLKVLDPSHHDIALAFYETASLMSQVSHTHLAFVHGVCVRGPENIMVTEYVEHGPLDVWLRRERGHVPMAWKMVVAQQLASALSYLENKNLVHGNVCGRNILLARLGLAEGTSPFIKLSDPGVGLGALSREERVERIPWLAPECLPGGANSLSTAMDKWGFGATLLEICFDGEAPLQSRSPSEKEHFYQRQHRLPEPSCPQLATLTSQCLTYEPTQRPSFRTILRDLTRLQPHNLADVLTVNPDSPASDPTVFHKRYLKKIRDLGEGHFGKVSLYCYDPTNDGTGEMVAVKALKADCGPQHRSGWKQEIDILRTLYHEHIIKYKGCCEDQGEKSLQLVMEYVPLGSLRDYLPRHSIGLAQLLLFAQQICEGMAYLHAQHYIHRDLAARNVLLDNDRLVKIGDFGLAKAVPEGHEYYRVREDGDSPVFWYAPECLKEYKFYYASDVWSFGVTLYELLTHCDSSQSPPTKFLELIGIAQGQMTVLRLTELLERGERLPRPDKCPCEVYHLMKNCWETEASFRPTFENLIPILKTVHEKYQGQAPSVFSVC

Molecule: COc1ccc(-c2nc(NC(=O)C3CC3)ncc2C)cc1F
- selectivity for TYK2 (TYK2): > 100 fold

Molecule: N#CCNC(=O)c1ccc(-c2ccnc(Nc3ccc(N4CCOCC4)cc3)n2)cc1 [CYT387]
- morphology of lesions (intestinal tumours; 4 weeks): retained the morphology of the growth arrested microadenomas
- intestinal tumour burden (histological assessment) (intestinal tumours; 4 weeks (5 days on, 2 off), vehicle: large tubular adenomas): few small emerging lesion

Molecule: Cc1ccc(S(=O)(=O)OCC(=O)Nc2ccc(C(=O)O)c(O)c2)cc1 [S3I-201]
- colony formation in soft agar (SW480 cells [1]): strongly impaired
- crypt formation of organoids (intestinal organoids): reduced
- colony formation in soft agar (SW480^APC cells [2]): did not affect colony formation

B1: IL-11: recombinant gp130 cytokine IL-11 (Genetics Institute) (protein, UniProt P20809 22-199, looked up)
Interleukin-11: PGPPPGPPRVSPDPRAELDSTVLLTRSLLADTRQLAAQLRDKFPADGDHNLDSLPTLAMSAGALGALQLPGVLTRLRADLLSYLRHVQWLRRAGGSSLKTLEPELGTLQARLDRLLRRLQLLMSRLALPQPPPDPPAPPLAPPSSAWGGIRAAHAILGGLHLTLDWAVRGLLLLKTRL
- colony formation in soft agar (SW480 cells [1]): enhanced colony formation
- Bmi1 expression in IECs (IECs): rapidly induced
- Socs3 expression in IECs (IECs): rapidly induced
- colony formation in soft agar (SW480^APC cells [2]): enhanced colony formation
- SOCS3 expression (SW480 cells [3]): increased SOCS3 expression
- SOCS3 expression (SW480^APC cells [4]): increased SOCS3 expression
